Experimental data from EP0546533A2, “Medical use of kininogenase” (SANWA KAGAKU KENKYUSHO CO., LTD., priority 1991, dated 1993).
Counter-ions that a name gives are not always drawn. Non-standard residues stand in square brackets, D forms with d. Residues, ends and D or L forms follow the SMILES beside them. *: point of attachment. pNA = O=[N+]([O-])c1ccc(N*)cc1; AMC = Cc1cc(=O)oc2cc(N*)ccc12

Experiments:
[1] = target: T1, kininogenase extracted and purified from human urine (original solution) (Homo sapiens, UniProt P06870); test: Enzymatic dynamic constants with lower molecule synthetic substrates; assay type: biochemical; conditions: synthetic substrate
T1 construct: from tissue; host or cells: human urine (pooled, healthy males)
Text: In the next place, An ability of the kininogenase for making free the kinin was periodically checked by using canine lower molecule kininogen, human lower molecule kininogen and human higher molecule kininogen in various concentration, as substrates to calculate enzymatic dynamic constants of the kininogenase.
An activity of the kininogenase to decomposition of lower molecule synthetic substrates was checked as in said Item (A) to calculate enzymatic dynamic constants of the kininogenase.

[2] = test system: model animal with hypoxia; test: Influence to model animal with hypoxia (5% O2 breathing); assay type: in vivo, New Zealand white rabbits
Experimental: Each of female New Zealand white rabbits (body weight of about 3kg) were anethetized with pentbarbital-Na, and a tube was inserted, at once, into their trachea to cause an adjusted breathing with air through a respirator.
After intravenously injecting 0.5mg/kg of tubocurarine chloride to cause an amyotonia, the animal was transferred to a fixing device to cause an orientation of her brain to peel bellies along a median line in its vertex and to form two apertures or windows of 0.5 x 0.5cm at right front portion and 1.0 x 0.5cm at right rear portion of the skull. To the front window, a silver ball electrode was set to measure brain-wave in the cortex, and a local blood flow in the cortex and P02 in brain were measured by utilizing the rear window. Number of heat beats was measured by making trigger R-wave of the […]. These parameters were recorded by feeding the same to a polygraph, crossed thermocouple and recticorder.
After stabilized of each parameters, the air from the respirator was changed to 5% 02 and at once, drugs given later was intravenously injected to continue the experiment for 10 minutes.
• (A) Control group (n = 3) : • Administrated 3.3ml of phosphate buffer (0.05M, pH 7) for 30 minutes at rate of 0.11 ml/min. • (B) 5.0 x 10-^3 PNA units/kg Administration group (n = 3) : • Administrated 3.3ml of solution for 30 minutes at rate of 0.11 ml/min., which solution was prepared by diluting a kininogenase solution of 5.0 x 10-^2 PNA units/ml with phosphate buffer (0.05M, pH 7) by 10 folds. • (C) 2.5 x 10-^3 PNA units/kg Administration group (n = 3) : • Administrated 3.3ml of solution for 30 minutes at rate of 0.11 ml/min., which solution was prepared by diluting a kininogenase solution of 2.5 x 10-^2 PNA units/ml with phosphate buffer (0.05M, pH 7) by 10 folds. • (D) 1.5 x 10-^3 PNA units/kg Administration group (n = 3) : • Administrated 3.3ml of solution for 30 minutes at rate of 0.11 ml/min., which solution was prepared by diluting a kininogenase solution of 1.5 x 10-^2 PNA units/ml with phosphate buffer (0.05M, pH 7) by 10 folds. • (E) Citicholine (100mg/kg) administration group (n = 3) : • Administrated 3.3ml of a solution for 30 minutes at rate of 0.11 ml/min., which solution was prepared by taking 4ml of Nicholine injection solution (250mg/2ml), and diluting the same with phosphate buffer (0.05M, pH 7) to make the drug concentration to 100mg/kg. • (F) Citicholine (10mg/kg) administration group (n = 3) : • Administrated 3.3ml of a solution for 30 minutes at rate of 0.11 ml/min., which solution was prepared by taking 2ml of Nicholine injection solution (100mg/2ml), and diluting the same with phosphate buffer (0.05M, pH 7) to make the drug concentration to 10mg/kg. • (G) Nicardipine (4a g/kg) administration group (n = 3) : • Taking 10mg of Nicardipine, and diluting the same with saline to make the drug concentration to 4µ g/kg to administrate 0.1 ml/kg for 20 seconds.
A ratio of change was calculated on the number of heart beats, and an amount of change was calculated on the P02 in brain and local blood flow in brain. The brain-wave was analyzed with an analyzer (Type ATAC-450 marketed by Japan Photoelectric Co., Ltd.) to print out results. A statistic inspection or examination was carried out with use of a program of FM 11 marketed by Fujitu Co., Ltd. and judged as there is a significant difference, when P value is 0.05 or less in Student's t-test.

brain in ischemic state = test: Cerebral ischemia by ligation of vertebral and common carotid arteries, then release; assay type: in vivo, rabbit
Experimental: Both of side vertebral arteries of a healthy rabbit were permanently ligated, both of the common carotid arteries were ligated for 40 minutes to make the brain in ischemic state, and then released the ligation of the common carotid arteries to observe a local blood flow and brain-wave in cerebral cortex portion and to measure concentrations of ATP and lactate in the cortex portion, at the time lapsed 15 minutes from the release of blood flow in the common carotid arteries. Following drugs were administrated in following manner. Citicholine : • Intravenously administrated for 30 minutes from 15 minutes before the ligation of common carotid arteries and at a dose of 100mg/kg. Nicardipine : • Rapidly administrated into an upper portion of small intestine at the time of 15 minutes before the ligation of common carotid arteries.

[3] = test system: model animal with cerebral infarction; test: Cerebral circulation and metabolism in cerebral infarction model (micro-glass bead injection); assay type: in vivo, rabbit
Experimental: A micro-glass bead was injected into right hemicerebrum of an anethetized healthy rabbit to prepare a model animal with cerebral infarction. After administration of a drug, local blood flow (in cortex portion), micro-circulation in cerebral pia leptmeninges, distribution of cerebral blood flow and concentrations of P02, ATP, lactate, pyruvate, glucose and glucose-6-phosphate were measured. The measurement of biochemical substances was carried out after lapsed 60 minutes from the administration of the drug.
A change in diameter arterioles in cerebral pia leptmeninges was observed, as to blood vessels having diameters of >100, >50 to <100 and <50u m, under microscope and according to Cranial window method.

[4] = test system: region occurred a cerebral infarction; test: Influence to region of cerebral infarction 24 hours after glass bead injection; assay type: in vivo, rabbit; conditions: 100mg/kg, sustaining administration for 30 minutes
Experimental: With use of model animals as in Pharmacological Test Example 4, an influence of a drug to region occurred a cerebral infarction at the time after lapsed 24 hours from the injection of glass bead was checked.

[5] = test system: model animal destroyed in its internal capsule; assay type: in vivo, New Zealand white rabbit; conditions: citicholine 100mg/kg i.v. for 30 minutes
Text: An influence of kininogenase to an improvement in an arousal reaction of brain wave in cerebral cortex was checked by selecting a rabbit as a test animal, electrically canterigating an internal capsule to prepare a model animal with symptoms similar to a person caused a cerebral hemorrhage, and administrating the drug, since the destruction of internal capsule gives a partial obstacle to an invigoration system in ascending rectacular region, which has been said as having a close relation with the arousal reaction of brain-wave in cortex.
A cannula was fitted in an auricle vein of a female New Zealand white rabbit to anethetize the animal by intravenously administrating pentbarbital-Na (30mg/kg). […] A concentration of PC02 in the artery blood was periodically measured by a blood gas analyzer to adjust the respirator, so that the concentration lies in a suitable level of 35 ± 5mmHg). […]
The brain-wave was monopolarly derived by the screw type electrode to record on a polygraph and also recorded on a magnetic tape by a data recorder. A cardiogram, blood pressure and number of heart beats were recorded on the polygraph through a secondary induction, a pressure transducer and a momentary heart beat recorder which subjects to cause a trigger the R wave for the cardiogram, respectively. […]
A voltage firstly appeared an arousal reaction, when a voltage for stimulating the rectacular regions shall be raised up with an interval of 5V, and a period of time during which the arousal reaction continues, when the rectacular regions are stimulated with voltage of 4V were defined as the "arousal reaction threshold value" and "arousal reaction sustaining time". The threshold value and sustaining time were visually judged from waves recorded on the charts and shown with units of voltage value (V) and time (sec.). […]

[6] = test system: middle cerebral artery obstructive model animal; test: Nerve dysfunction, cerebral circulation and brain wave in middle cerebral artery obstruction model; assay type: in vivo, Japanese monkey; conditions: citicholine 10mg/kg intravenous infusion, 24 hours after obstruction
Experimental: A tube was fitted to left-outernal carotid artery of anesthetized Japanese monkey and a silicone resin pellet [1 mm (q) ) x 5mm] was inserted into the artery through the tube to prepare a middle cerebral artery obstructive model animal.
After lapsed 5 minutes from the obstruction of left middle cerebral artery, kininogenase (2.5 x 10-^2 PNA units/kg) or citicholine (10mg/kg) as a test and control drugs was administrated through an intravenous infusion.

[7] = 5% O2, citicholine 100mg/kg or 10mg/kg i.v., Nicardipine 4µ g/kg

T1 sequence (P06870 25-262): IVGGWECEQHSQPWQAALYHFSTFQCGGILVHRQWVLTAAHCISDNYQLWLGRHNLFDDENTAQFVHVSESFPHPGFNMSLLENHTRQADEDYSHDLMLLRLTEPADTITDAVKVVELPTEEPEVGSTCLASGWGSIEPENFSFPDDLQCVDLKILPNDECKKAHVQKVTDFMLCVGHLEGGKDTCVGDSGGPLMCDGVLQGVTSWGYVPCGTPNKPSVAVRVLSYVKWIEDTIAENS

Structure (SMILES): CCOC(=O)[C@H](CCCNC(=N)N)NC(=O)c1ccccc1 [BAEE, Benzoyl-L-Arg ethyl ether hydrochloride]
- Km [1]: 252 µM
- Vmax [1]: 4.23e-05 min⁻¹ mg⁻¹

Structure (SMILES): C[N+](C)(C)CCOP(=O)(O)OP(=O)([O-])OC[C@H]1O[C@@H](n2ccc(N)nc2=O)[C@H](O)[C@@H]1O [Citicholine]
- Influence to P02 in cerebral cortex (suppression of decrease) [2, 7]: no suppressing effect
- Influence to local blood flow in cerebral cortex (suppression of increase) [2, 7]: no effect
- Influence to brain-wave in cortex portion ([2]; 5% O2, citicholine at dose of 100mg/kg): low-amplitude and quick wave
- Influence to number of heart beats ([2]; versus control group, citicholine 100mg/kg or 10mg/kg i.v. for 30 minutes, Nicardipine 4µ g/kg for 20 seconds): no significant difference
- local blood flow in cerebral cortex portion after release of blood flow (brain in ischemic state; citicholine 100mg/kg i.v. for 30 minutes, Nicardipine rapidly into upper small intestine, 15 minutes before ligation): did not suppresses the blood flow increase
- reactivation of flattened brain-wave (brain in ischemic state; citicholine 100mg/kg i.v., Nicardipine into upper small intestine): not recognized
- suppression of ATP decrease ([3]; 60 minutes after administration of the drug): did not show the suppress of ATP decrease
- Blood flow in cerebral cortex portion at the ischemic side ([3]; Nicardipine 0.5mg/kg rapid into upper small intestine, citicholine 10mg/kg sustaining intravenous): no increase
- Region of infarction (%) ([4]; 24 hours after glass bead injection): 30.8 ± 19.8%
- Inhibition (%) ([4]; versus control): -35.9%
- frequency components of brain wave in cortex portion (quick wave components) ([5]; reported as a tendency): reduction of quick wave components is suppressed
- Sustaining period of time in the arousal reaction ([5]; versus control group): not recognized
- Threshold value of arousal reaction ([5]; versus control group): No apparent change
- blood flow in cerebral cortex [6]: no improvement
- brain wave activities [6]: no improvement
- neuro symptoms ([6]; versus control group): improvement

Structure (SMILES): Cc1cc(=O)oc2cc(NC(=O)[C@H](CCCNC(=N)N)NC(=O)[C@H](Cc3ccccc3)NC(=O)[C@@H]3CCCN3)ccc12 [MCA, L-Pro-L-Phe-L-Arg-4-methyl-cumaryl-7-amide] (H-Pro-Phe-Arg-{AMC})
- Km [1]: 34 µM
- Vmax [1]: 2.57e-05 min⁻¹ mg⁻¹

Structure (SMILES): COC(=O)C1=C(C)NC(C)=C(C(=O)OCCN(C)Cc2ccccc2)C1c1cccc([N+](=O)[O-])c1 (centres unmarked) [Nicardipine]
- Influence to local blood flow in cerebral cortex (suppression of increase) [2, 7]: no effect

Structure (SMILES): CC(C)C[C@H](NC(=O)[C@H](N)C(C)C)C(=O)N[C@@H](CCCNC(=N)N)C(=O)Nc1ccc([N+](=O)[O-])cc1 [PNA, H-D-Val-L-Leu-L-Arg-p-nitroanilide dihydrochloride] (H-[dV]-Leu-Arg-pNA)
- Km [1]: 8.95 µM
- Vmax [1]: 7.8e-06 min⁻¹ mg⁻¹
